Test results published in patent US11555055B2, “Peptide inhibitors of insulin-degrading enzyme” (The Regents of the University of California, priority 2017, dated 2023).
Where two headings read alike, the source gives them in different places. Where a SMILES comes first, the peptide text is derived from it. Bridges are numbered along the chain shown (N, C = ends).

Columns and labels:
[1] = target: T1, IDE (Homo sapiens, UniProt P14735); assay: IDE protease activity assay, insulin degradation quantified by ELISA; format: biochemical
T1 construct: made in house; host or cells: bacteria
T1 sequence (P14735 1-1019): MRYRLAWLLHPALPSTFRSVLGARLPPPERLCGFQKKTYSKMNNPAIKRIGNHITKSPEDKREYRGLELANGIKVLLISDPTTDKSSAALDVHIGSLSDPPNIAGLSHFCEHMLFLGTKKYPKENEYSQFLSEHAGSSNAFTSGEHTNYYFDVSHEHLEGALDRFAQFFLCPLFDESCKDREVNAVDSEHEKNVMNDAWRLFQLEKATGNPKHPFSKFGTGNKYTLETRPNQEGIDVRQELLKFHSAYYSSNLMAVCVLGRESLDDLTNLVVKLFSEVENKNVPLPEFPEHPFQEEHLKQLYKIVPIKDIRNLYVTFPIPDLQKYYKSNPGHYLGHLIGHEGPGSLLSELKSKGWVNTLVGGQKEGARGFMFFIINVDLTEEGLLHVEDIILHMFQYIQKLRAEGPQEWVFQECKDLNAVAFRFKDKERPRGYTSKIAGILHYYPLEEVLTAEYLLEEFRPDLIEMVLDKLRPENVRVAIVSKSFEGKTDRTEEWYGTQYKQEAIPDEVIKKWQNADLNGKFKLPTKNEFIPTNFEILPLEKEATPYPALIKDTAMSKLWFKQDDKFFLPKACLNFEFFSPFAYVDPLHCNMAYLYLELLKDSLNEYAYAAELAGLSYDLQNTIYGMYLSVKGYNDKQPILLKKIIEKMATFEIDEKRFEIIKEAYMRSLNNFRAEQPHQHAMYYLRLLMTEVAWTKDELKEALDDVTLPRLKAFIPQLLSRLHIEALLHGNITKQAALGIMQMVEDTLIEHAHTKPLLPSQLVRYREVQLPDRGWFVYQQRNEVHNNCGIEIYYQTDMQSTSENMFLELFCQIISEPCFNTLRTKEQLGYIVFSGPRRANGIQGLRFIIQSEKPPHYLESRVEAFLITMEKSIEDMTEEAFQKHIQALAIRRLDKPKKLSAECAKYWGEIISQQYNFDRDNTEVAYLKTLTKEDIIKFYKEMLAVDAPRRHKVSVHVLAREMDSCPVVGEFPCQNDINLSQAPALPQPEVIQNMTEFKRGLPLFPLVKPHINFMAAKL
Procedure: To assess the extent to which these peptide sequences inhibit IDE, we quantified their potency in protease activity assays using recombinant human IDE and two different substrates: FRET1, a fluorogenic peptide (45), and recombinant human insulin.
(§1) Degradation Assays—IDE activity was quantified by monitoring the degradation of (7-methoxycoumarin-4-yl)acetic acid-[…](2,4-dinitrophenyl) (FRET1, 5 μM) (49,55), fluoresceinated and biotinylated amyloid β-protein (FAβB; 500 nM) or recombinant human insulin (50 nM) in PBS supplemented with 0.05% BSA. FRET1 degradation was measured by changes in fluorescence (λex=340 nm, λem=420 nm); FAβB degradation was monitored by fluorescence polarization (λex=488 nm, λem=525 nm), as described (56); and insulin degradation was quantified by ELISA. In vitro activity assays incorporated recombinant human IDE (1 nM) purified from bacteria (35). For quantitation of insulin degradation in primary murine skin fibroblasts, cells (1×10^5/well) were plated in 96-well plates and maintained in DMEM supplemented with 10% fetal bovine serum (FBS), 2 mM glutamine, penicillin and streptomycin. After addition of insulin (10 nM or 100 nM), samples of conditioned medium were removed daily and quickly frozen, then insulin levels were quantified in parallel by ELISA according to manufacturer's recommendations (Crystal Chem, Downers Grove, Ill., USA). Assessment of the activity of P12-3A against a variety of matrix-metalloproteases was conducted using the Matrix Metalloproteinase (MMP) Inhibitor Profiling Kit, Fluorometric RED (Enzo Life Sciences, Inc., Farmingdale, N.Y., USA) according to manufacturer's recommendations using the broad-spectrum MMP inhibitor, NNGH, as a positive control.

[2] = target: T1, IDE; assay: IDE activity assay, FAβB (amyloid β-protein) degradation by fluorescence polarization; format: biochemical; conditions: P12-3A 100 μM
Procedure: as §1, with “Assessment of the activity of P12-3A against a variety of matrix-metalloproteases was conducted using the Matrix Metalloproteinase (MMP) Inhibitor Profiling Kit, Fluorometric RED (Enzo Life Sciences, Inc., Farmingdale, N.Y., USA) according to manufacturer's recommendations using the broad-spectrum MMP inhibitor, NNGH, as a positive control.” left out

Ki ([1]; deliberately cyclized, highly pure cosmetic-grade P12-3A, n=6, read-out: Ki against insulin degradation): 2.5 ± 0.31 µM | Ki ([1]; substrate recombinant human insulin, Ki converted from IC50 with the Cheng-Prusoff equation, read-out: Ki Insulin): 4.1 ± 0.3 µM | inhibition of IDE in selectivity panel [2]: significant inhibition
Compound: CC(C)C[C@H](NC(=O)[C@H](CO)NC(=O)[C@@H](N)CCC(N)=O)C(=O)N1CCC[C@H]1C(=O)N[C@@H](Cc1c[nH]c2ccccc12)C(=O)N[C@H]1CSSC[C@@H](C(=O)N[C@H](C(=O)N[C@H](C(N)=O)[C@@H](C)O)C(C)C)NC(=O)[C@H](Cc2c[nH]cn2)NC(=O)[C@@H]2CCCN2C(=O)[C@H](Cc2ccc(O)cc2)NC1=O [Peptide P12-3A] (H-QSLPWCYPHCVT-NH2; disulfide 6-10 (inferred))
